Measurements reported in ChEMBL document CHEMBL1909046, “DrugMatrix in vitro pharmacology data”.

Key:
[1] = target: Sodium-dependent dopamine transporter (Homo sapiens, UniProt Q01959); assay: DRUGMATRIX: Dopamine Transporter radioligand binding (ligand: [125I] RTI-55); type: cell membranes, CHO-K1, Membrane; conditions: Not Active = under 50% inhibition at 10 µM
Cytochrome P450 3A4 = Cytochrome P450 3A4 (Homo sapiens, UniProt P08684); conditions: bti-tn-5b1-4; also: in other assays of this panel Not Active means under 50% inhibition at 10 µM
[2] = target: Sigma non-opioid intracellular receptor 1 (Homo sapiens, UniProt Q99720); assay: DRUGMATRIX: Sigma1 radioligand binding (ligand: [3H] Haloperidol); type: cell membranes, Jurkat, Membrane; conditions: jurkat; Not Active = under 50% inhibition at 10 µM
Estrogen receptor = target: T1, Estrogen receptor (Homo sapiens, UniProt P03372); conditions: sf9; also: in other assays of this panel Not Active means under 50% inhibition at 10 µM
T1 sequence (P03372 whole entry): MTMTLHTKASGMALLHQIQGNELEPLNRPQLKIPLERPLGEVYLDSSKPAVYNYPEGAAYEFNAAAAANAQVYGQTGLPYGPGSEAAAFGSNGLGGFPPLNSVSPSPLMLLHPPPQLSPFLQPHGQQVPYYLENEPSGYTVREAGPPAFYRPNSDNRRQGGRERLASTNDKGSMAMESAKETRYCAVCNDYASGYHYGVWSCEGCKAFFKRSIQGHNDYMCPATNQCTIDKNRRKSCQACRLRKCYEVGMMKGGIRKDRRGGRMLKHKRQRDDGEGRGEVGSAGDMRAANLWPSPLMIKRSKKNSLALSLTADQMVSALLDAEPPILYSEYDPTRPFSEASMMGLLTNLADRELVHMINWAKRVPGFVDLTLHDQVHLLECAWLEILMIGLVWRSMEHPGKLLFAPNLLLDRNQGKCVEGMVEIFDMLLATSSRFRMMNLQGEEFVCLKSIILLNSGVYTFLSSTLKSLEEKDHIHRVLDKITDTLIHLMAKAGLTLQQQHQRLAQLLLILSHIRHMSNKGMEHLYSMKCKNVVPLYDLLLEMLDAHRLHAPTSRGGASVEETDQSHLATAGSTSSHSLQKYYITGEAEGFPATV

[3] = DRUGMATRIX: Atrial Natriuretic Factor (ANF) radioligand binding (ligand: [125I] ANF (rat)); type: cell membranes, Cavia porcellus, Dunkin-Hartley, Adrenal gland, Membrane; conditions: Not Active = under 50% inhibition at 10 µM
Melanocortin receptor 5 = Melanocortin receptor 5 (Homo sapiens, UniProt P33032); type: cell membranes, HEK293, Membrane; conditions: hek293; also: in other assays of this panel Not Active means under 50% inhibition at 10 µM
[4] = target: T2, Neuropeptide Y receptor type 1 (Homo sapiens, UniProt P25929); type: cell membranes, Membrane; conditions: sk-n-mc; also: in other assays of this panel Not Active means under 50% inhibition at 10 µM
T2 sequence (P25929 whole entry): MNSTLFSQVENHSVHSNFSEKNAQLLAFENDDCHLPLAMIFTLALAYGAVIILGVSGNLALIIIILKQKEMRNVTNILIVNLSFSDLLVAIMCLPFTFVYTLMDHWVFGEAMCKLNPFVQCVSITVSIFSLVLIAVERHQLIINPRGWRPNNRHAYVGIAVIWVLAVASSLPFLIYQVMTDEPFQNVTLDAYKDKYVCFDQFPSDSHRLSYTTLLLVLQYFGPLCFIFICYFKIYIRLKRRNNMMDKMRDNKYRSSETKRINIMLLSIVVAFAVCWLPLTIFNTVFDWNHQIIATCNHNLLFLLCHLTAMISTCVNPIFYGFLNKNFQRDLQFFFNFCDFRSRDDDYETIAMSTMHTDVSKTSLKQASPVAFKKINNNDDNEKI

Cytochrome P450 3A4, sequence (P08684 whole entry): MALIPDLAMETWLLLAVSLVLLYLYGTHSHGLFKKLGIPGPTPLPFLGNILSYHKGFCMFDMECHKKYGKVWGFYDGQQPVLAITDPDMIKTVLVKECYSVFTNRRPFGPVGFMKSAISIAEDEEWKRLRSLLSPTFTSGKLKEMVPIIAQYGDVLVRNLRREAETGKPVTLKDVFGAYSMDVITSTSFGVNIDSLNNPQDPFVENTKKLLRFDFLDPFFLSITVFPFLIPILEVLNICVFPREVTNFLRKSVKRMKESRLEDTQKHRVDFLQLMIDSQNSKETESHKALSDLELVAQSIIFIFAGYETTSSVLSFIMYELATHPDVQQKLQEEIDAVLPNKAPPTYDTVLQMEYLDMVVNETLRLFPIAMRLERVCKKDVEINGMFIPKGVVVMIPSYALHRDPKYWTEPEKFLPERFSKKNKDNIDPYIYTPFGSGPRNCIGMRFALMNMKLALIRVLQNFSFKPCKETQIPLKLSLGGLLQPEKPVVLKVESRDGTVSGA
Sigma non-opioid intracellular receptor 1, sequence (Q99720 whole entry): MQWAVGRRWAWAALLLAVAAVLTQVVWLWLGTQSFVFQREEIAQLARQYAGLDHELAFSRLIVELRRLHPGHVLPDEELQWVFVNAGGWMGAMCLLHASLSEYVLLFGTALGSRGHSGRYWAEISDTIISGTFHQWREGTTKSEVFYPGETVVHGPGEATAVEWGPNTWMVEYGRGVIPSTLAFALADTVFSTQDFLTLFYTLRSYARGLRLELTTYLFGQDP
Melanocortin receptor 5, sequence (P33032 whole entry): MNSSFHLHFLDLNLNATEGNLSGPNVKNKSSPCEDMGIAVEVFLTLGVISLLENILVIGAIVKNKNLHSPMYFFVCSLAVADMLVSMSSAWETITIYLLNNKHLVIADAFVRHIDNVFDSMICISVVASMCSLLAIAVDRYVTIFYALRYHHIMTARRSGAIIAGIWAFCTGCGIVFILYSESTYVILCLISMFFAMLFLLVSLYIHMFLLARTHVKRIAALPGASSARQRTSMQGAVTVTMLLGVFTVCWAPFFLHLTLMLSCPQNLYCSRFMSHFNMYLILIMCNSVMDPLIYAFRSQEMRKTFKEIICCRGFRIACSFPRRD
Sodium-dependent dopamine transporter, sequence (Q01959 whole entry): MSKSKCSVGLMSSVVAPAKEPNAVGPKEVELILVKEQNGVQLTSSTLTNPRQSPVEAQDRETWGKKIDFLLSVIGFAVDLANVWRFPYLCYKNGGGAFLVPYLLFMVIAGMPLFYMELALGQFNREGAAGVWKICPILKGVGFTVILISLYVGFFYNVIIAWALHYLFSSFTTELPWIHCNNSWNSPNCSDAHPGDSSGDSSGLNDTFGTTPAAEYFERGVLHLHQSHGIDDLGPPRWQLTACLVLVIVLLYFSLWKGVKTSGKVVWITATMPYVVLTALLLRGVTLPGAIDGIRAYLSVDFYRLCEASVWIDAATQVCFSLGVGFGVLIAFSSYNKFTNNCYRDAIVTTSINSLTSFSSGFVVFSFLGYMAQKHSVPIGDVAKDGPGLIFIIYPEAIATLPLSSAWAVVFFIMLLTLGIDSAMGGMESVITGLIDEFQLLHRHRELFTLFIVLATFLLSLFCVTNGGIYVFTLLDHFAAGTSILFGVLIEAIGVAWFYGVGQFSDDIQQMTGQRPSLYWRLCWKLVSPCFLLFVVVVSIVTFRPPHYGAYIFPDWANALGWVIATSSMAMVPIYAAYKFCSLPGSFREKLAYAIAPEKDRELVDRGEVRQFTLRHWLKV

SMILES	IC50 ([1]; cho-k1)	IC50 (Cytochrome P450 3A4)	Ki (Cytochrome P450 3A4)	IC50 [2]	IC50 (Estrogen receptor)	IC50 [3]	Ki [3]	IC50 (Melanocortin receptor 5)	IC50 [4]	IC50 ([1]; read-out: IC50)	Ki ([1]; read-out: Ki)
O=C(O)CCCc1cccs1	Not Active	Not Active	Not Active	Not Active	Not Active	Not Active	Not Active	Not Active	Not Active	–	–
O=C(c1ccccc1F)N1CCC(Cc2ccccc2)CC1	Not Active	Not Active	Not Active	Not Active	Not Active	Not Active	Not Active	Not Active	Not Active	–	–
CC(O)COC[C@H]1O[C@@H]2O[C@H]3[C@H](O)[C@@H](O)[C@@H](O[C@H]4[C@H](O)[C@@H](O)[C@@H](O[C@H]5[C@H](O)[C@@H](O)[C@@H](O[C@H]6[C@H](O)[C@@H](O)[C@@H](O[C@H]7[C@H](O)[C@@H](O)[C@@H](O[C@H]8[C@H](O)[C@@H](O)[C@@H](O[C@H]1[C@H](O)[C@H]2O)O[C@@H]8COCC(C)O)O[C@@H]7COCC(C)O)O[C@@H]6COCC(C)O)O[C@@H]5COCC(C)O)O[C@@H]4COCC(C)O)O[C@@H]3COCC(C)O (stereo partly drawn) [2-HYDROXYPROPYL-BETA-CYCLODEXTRIN]	–	Not Active	Not Active	Not Active	Not Active	Not Active	Not Active	Not Active	Not Active	1.69 µM	1.34 µM
NC(=O)c1cccc(N)c1 [3-AMINOBENZAMIDE]	Not Active	Not Active	Not Active	Not Active	Not Active	Not Active	Not Active	Not Active	Not Active	–	–
CC[C@H]1[C@@H]2C[C@H]3[C@@H]4N(C)c5ccccc5[C@]45C[C@@H]([C@@H]2[C@H]5O)N3[C@@H]1O [AJMALINE]	Not Active	Not Active	Not Active	Not Active	Not Active	Not Active	Not Active	Not Active	Not Active	–	–
CC(C)C[C@H]1C(=O)N2CCC[C@H]2[C@]2(O)O[C@](NC(=O)[C@@H]3C=C4c5cccc6[nH]cc(c56)C[C@H]4N(C)C3)(C(C)C)C(=O)N12 [ERGOCRYPTINE]	Not Active	–	–	Not Active	Not Active	Not Active	Not Active	Not Active	Not Active	–	–
CC(C)(C(=O)O)c1ccc(C(O)CCCN2CCC(C(O)(c3ccccc3)c3ccccc3)CC2)cc1 (stereo not drawn) [FEXOFENADINE]	Not Active	–	–	Not Active	Not Active	Not Active	Not Active	Not Active	Not Active	–	–
CC(=O)OCC(=O)[C@@]12OC(C)(C)O[C@@H]1C[C@H]1[C@@H]3C[C@H](F)C4=CC(=O)C=C[C@]4(C)[C@@]3(F)[C@@H](O)C[C@@]12C [FLUOCINONIDE]	Not Active	–	–	Not Active	Not Active	Not Active	Not Active	Not Active	Not Active	–	–
N[C@@H](Cn1ccc(=O)c(O)c1)C(=O)O [L-MIMOSINE]	Not Active	–	–	Not Active	Not Active	Not Active	Not Active	Not Active	Not Active	–	–
C[C@@H]1C/C=C/C=C/C=C/C=C/[C@H](O[C@@H]2O[C@H](C)[C@@H](O)[C@H](N)[C@@H]2O)C[C@@H]2O[C@](O)(C[C@@H](O)C[C@H]3O[C@@H]3/C=C/C(=O)O1)C[C@H](O)[C@H]2C(=O)O [NATAMYCIN]	Not Active	–	–	Not Active	Not Active	Not Active	Not Active	Not Active	Not Active	–	–
NNCCc1ccccc1 [PHENELZINE]	Not Active	–	–	Not Active	Not Active	Not Active	Not Active	Not Active	Not Active	–	–
